Laboratory results as given in the supplement of paper PMC10307832.

Tests used:
Test in all cases: relative viability (nuclei count vs DMSO), 5 days (fraction); higher = more cells survive
[1] = compound: CC1=CC(=C(N1C2=CC=C(C=C2)Cl)C)C(=O)CN3CCCCC3 [IU1-47] + Nc1ncn([C@H]2C[C@H](O)[C@@H](CO)O2)c(=O)n1 [Decitabine] (partner 2 µM)
Outline: (§1)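 Each reported value is a median over duplicate plates. It expresses relative viability: treated-well nuclei count divided by vehicle-well nuclei count. Lung cancer cell lines in 1536-well plates were dosed by pin tool a day after seeding, alone with one drug or with a fixed anchor-drug dose plus five library-drug doses (not always all listed) in √10 steps, and nuclei were counted after 5 days.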

[2] = compound: CC1=CC(=C(N1C2=CC=C(C=C2)Cl)C)C(=O)CN3CCCCC3 [IU1-47] + N=C(N)NC(=N)NCCc1ccccc1 [Phenformin] (partner 250 µM)
Outline: as §1

[3] = compound: CC1=CC(=C(N1C2=CC=C(C=C2)Cl)C)C(=O)CN3CCCCC3 [IU1-47] + CC(=O)Nc1cccc(-n2c(=O)n(C3CC3)c(=O)c3c(Nc4ccc(I)cc4F)n(C)c(=O)c(C)c32)c1 [Trametinib] (partner 0.02 µM)
Outline: as §1

[4] = compound: Cc1nc(C(=O)NCC(=O)O)c(O)c2ccc(Oc3ccccc3)cc12 [FG-4592] + CC1(C)CCC(c2ccc(Cl)cc2)=C(CN2CCN(c3ccc(C(=O)NS(=O)(=O)c4ccc(N[C@H](CCN5CCOCC5)CSc5ccccc5)c(S(=O)(=O)C(F)(F)F)c4)cc3)CC2)C1 [Navitoclax] (partner 0.5 µM)
Outline: as §1

Cell Line	relative viability ([1]; first compound 0.08 µM)	relative viability ([1]; first compound 0.253 µM)	relative viability ([1]; first compound 0.8 µM)	relative viability ([1]; first compound 2.53 µM)	relative viability ([1]; first compound 8 µM)	relative viability ([2]; first compound 0.08 µM)	relative viability ([2]; first compound 0.253 µM)	relative viability ([2]; first compound 0.8 µM)	relative viability ([2]; first compound 2.53 µM)	relative viability ([2]; first compound 8 µM)	relative viability ([3]; first compound 0.08 µM)	relative viability ([3]; first compound 0.253 µM)	relative viability ([3]; first compound 0.8 µM)	relative viability ([3]; first compound 2.53 µM)	relative viability ([3]; first compound 8 µM)	relative viability ([4]; first compound 0.08 µM)	relative viability ([4]; first compound 0.253 µM)	relative viability ([4]; first compound 0.8 µM)	relative viability ([4]; first compound 2.53 µM)	relative viability ([4]; first compound 8 µM)
NCI-H522	0.67	0.64	0.739	0.763	0.634	0.577	0.595	0.708	0.585	0.647	0.826	0.747	0.708	0.715	0.865	–	–	–	–	–
HCC-15	0.619	0.586	0.63	0.552	0.461	0.482	0.497	0.557	0.491	0.432	0.415	0.384	0.384	–	0.469	0.758	0.698	0.686	0.714	0.744
A-427	0.556	0.583	0.517	0.547	0.5	0.342	0.313	0.306	–	0.229	0.833	0.879	0.773	0.749	0.636	0.829	0.739	0.802	1.08	0.914
NCI-H2228	–	–	–	–	–	0.413	0.434	0.315	0.32	0.262	0.614	0.415	0.699	0.454	0.399	0.949	0.663	0.896	0.832	0.819
NCI-H1734	0.6	0.541	0.548	0.5	0.419	0.441	0.423	0.369	–	0.376	0.867	0.67	0.593	0.647	0.645	0.854	0.776	0.838	0.814	0.787
PC-14	0.177	0.205	0.235	0.261	0.209	0.686	0.611	0.633	0.664	0.406	0.95	0.771	0.91	1.14	0.723	1.01	1.06	1.08	1.01	1.03
NCI-H1915	0.269	0.256	0.27	0.25	0.247	0.373	0.354	0.342	–	0.332	0.296	0.288	0.28	0.3	0.324	0.744	0.733	0.838	0.778	0.786
NCI-H1666	0.802	0.714	0.718	0.738	0.784	0.609	0.527	0.539	0.584	0.544	1	0.871	0.851	0.916	0.901	1.01	0.674	1.07	0.905	0.879
HCC-366	0.375	0.382	0.349	0.389	0.272	0.648	0.561	0.648	0.584	0.594	0.402	0.431	0.394	0.423	0.323	1.07	0.903	1.12	1.1	1.04
SK-MES-1	0.329	0.405	0.3	0.409	0.38	0.729	0.76	0.66	0.662	0.575	0.585	0.606	0.567	0.629	0.584	1.15	1.18	1.32	1.25	1.39
SW 1573	0.529	0.599	0.542	0.342	0.506	0.394	0.353	0.367	0.421	0.382	0.656	0.59	0.683	0.721	0.489	0.771	0.933	1.02	0.937	0.803
NCI-H661	0.531	0.575	0.596	0.556	0.503	0.286	0.295	0.28	0.245	0.291	0.576	0.57	0.576	0.464	0.471	–	–	–	–	–
PC-3 [JPC-3]	0.905	0.935	0.886	0.834	0.888	0.498	0.463	0.44	0.496	0.429	0.771	0.686	0.73	0.715	0.791	0.778	0.823	0.829	0.875	0.859
NCI-H1623	–	–	–	–	–	0.634	0.61	0.642	0.576	0.551	–	–	–	–	–	–	–	–	–	–
Calu-6	–	–	–	–	–	–	–	–	–	–	–	–	–	–	–	0.795	0.734	0.974	0.914	0.87
